From DBAASP
≈ marks a conversion by molar mass, not a printed value. Where “and” joins values, the source holds several entries; their conditions need not be identical. Equal values may be shown once. One block for each molecule: values may come before it.

Legend:
Experiment in all cases: ≥ marks a high value that may be exact or a test limit, other limits are often not marked, values filed in µg/mL are converted to µM
[1] = test system: Candida albicans NCYC 1467
[2] = test system: Enterococcus faecalis NCTC 12697
[3] = test system: Escherichia coli NCTC 10418
[4] = test system: Klebsiella pneumoniae ATCC 43816
[5] = test system: Pseudomonas aeruginosa ATCC 27853
[6] = test system: Staphylococcus aureus NCTC 10788
[7] = test system: Staphylococcus aureus NCTC 12493
[8] = test system: Candida albicans NCTC 1467
[9] = test system: Staphylococcus aureus ATCC 12493
[10] = test system: Bacillus subtilis VKM B-501
Escherichia coli C600 = test system: Escherichia coli C600
[11] = test system: Staphylococcus aureus 209P
[12] = test system: Enterobacter cloacae 4172
[13] = test system: Enterococcus faecalis ATCC 29212
Escherichia coli 1057 = test system: Escherichia coli 1057
Escherichia coli 214 = test system: Escherichia coli 214
[14] = test system: Escherichia coli BL21(DE3)
Escherichia coli ML-35p = test system: Escherichia coli ML-35p
[15] = test system: Micrococcus luteus VKM B-1314
[16] = test system: Staphylococcus aureus ATCC 29213
Escherichia coli D31 = test system: Escherichia coli D31
[17] = test system: Klebsiella pneumoniae ATCC 700603
[18] = test system: Pseudomonas aeruginosa ATCC 10145
[19] = test system: Staphylococcus aureus ATCC 27660
[20] = test system: Escherichia coli K12 MG1655
Escherichia coli UTI89 = test system: Escherichia coli UTI89
[21] = test system: Salmonella enterica subsp. enterica serovar Typhimurium ATCC 14028
[22] = test system: Staphylococcus epidermidis
[23] = test system: Escherichia coli ATCC 35218
[24] = test system: Klebsiella oxytoca ATCC 13182
[25] = test system: Klebsiella pneumoniae KpC+001825971
[26] = test system: Serratia marcescens ATCC 13880
[27] = test system: Staphylococcus aureus ATCC 80958

MIC [12]: 0.125 µM and 0.25 µM
MIC [13]: 4 µM and 8 µM
MIC (Escherichia coli 1057): 0.125 µM (≈ 0.421 µg/mL)
MIC (Escherichia coli 214): 0.06 µM (≈ 0.202 µg/mL)
MIC [14]: 0.06 µM (≈ 0.202 µg/mL)
MIC (Escherichia coli C600): 0.06 µM and 0.125 µM
MIC (Escherichia coli ML-35p): 0.06 µM (≈ 0.202 µg/mL)
MIC [15]: 0.25 µM and 0.5 µM
MIC [16]: 1 µM and 2 µM
Structure (SMILES): CC[C@H](C)[C@H](NC(=O)[C@@H]1CCCN1C(=O)CNC(=O)[C@@H](NC(=O)[C@H](Cc1ccccc1)NC(=O)[C@@H]1CCCN1C(=O)CNC(=O)[C@@H](NC(=O)[C@H](CCCCN)NC(=O)[C@H](Cc1cnc[nH]1)NC(=O)[C@H](Cc1c[nH]c2ccccc12)NC(=O)[C@H](CC(C)C)NC(=O)[C@H](CCCN=C(N)N)NC(=O)[C@H](CCCCN)NC(=O)[C@H](CC(C)C)NC(=O)[C@H](CCCCN)NC(=O)[C@H](CCCCN)NC(=O)[C@H](CCCN=C(N)N)NC(=O)[C@H](Cc1ccccc1)NC(=O)[C@H](CCCN=C(N)N)NC(=O)[C@H](CCCCN)NC(=O)[C@H](Cc1ccccc1)NC(=O)[C@H](CCCN=C(N)N)NC(=O)CN)C(C)C)C(C)C)C(=O)N[C@@H](CC(C)C)C(=O)N[C@@H](Cc1cnc[nH]1)C(=O)N[C@@H](Cc1ccc(O)cc1)C(=O)O [GRFKRFRKKLKRLWHKVGPFVGPILHY]

MIC (Escherichia coli D31): 15 µM (≈ 33.2 µg/mL)
MIC [17]: > 15 µM
MIC [18]: 15 µM (≈ 33.2 µg/mL)
MIC [19]: 15 µM (≈ 33.2 µg/mL)
Structure (SMILES): CC(C)C[C@H](NC(=O)[C@H](CCCCN)NC(=O)[C@H](CCCCN)NC(=O)[C@H](C)NC(=O)[C@H](CCCCN)NC(=O)[C@H](CCCCN)NC(=O)[C@H](C)NC(=O)CNC(=O)[C@H](CCCCN)NC(=O)[C@H](C)NC(=O)[C@H](Cc1c[nH]c2ccccc12)NC(=O)[C@H](C)NC(=O)[C@H](CCCCN)NC(=O)[C@H](C)NC(=O)[C@H](C)NC(=O)[C@H](CCCCN)NC(=O)[C@@H](N)CCCCN)C(=O)N[C@@H](C)C(=O)N[C@@H](CCCCN)C(=O)NCC(=O)N[C@@H](C)C(=O)NCC(=O)O [KKAAKAWAKGAKKAKKLAKGAG]

MIC [20]: 6.25 µM (≈ 11.7 µg/mL)
MIC (Escherichia coli UTI89): 6.25 µM (≈ 11.7 µg/mL)
MIC [21]: 25 µM (≈ 46.9 µg/mL)
MIC [22]: 25 µM (≈ 46.9 µg/mL)
Structure (SMILES): CC[C@H](C)[C@H](NC(=O)[C@H](CCCCN)NC(=O)[C@H](CCC(N)=O)NC(=O)[C@H](Cc1c[nH]c2ccccc12)NC(=O)[C@@H](NC(=O)[C@H](CCCN=C(N)N)NC(=O)[C@@H](N)CCCCN)[C@@H](C)CC)C(=O)N[C@@H](CCCCN)C(=O)N[C@@H](CC(N)=O)C(=O)N[C@@H](Cc1ccccc1)C(=O)N[C@@H](Cc1ccccc1)C(=O)N[C@@H](CCC(N)=O)C(=O)N[C@@H](CCCCN)C(=O)N[C@@H](CC(C)C)C(=O)O [KRIWQKIKNFFQKL]

MIC [23]: 7.35 µM (≈ 18.4 µg/mL)
MIC [24]: 1.84 µM (≈ 4.6 µg/mL)
MIC [17]: 3.67 µM (≈ 9.18 µg/mL)
MIC [25]: 25.6 µM (≈ 64.1 µg/mL)
MIC [26]: 1.84 µM (≈ 4.6 µg/mL)
MIC [27]: 7.35 µM (≈ 18.4 µg/mL)
Structure (SMILES): CC(C)C[C@H](NC(=O)[C@H](Cc1ccc(O)cc1)NC(=O)[C@H](C)NC(=O)[C@H](CCCN=C(N)N)NC(=O)[C@H](Cc1ccccc1)NC(=O)[C@H](Cc1ccc(O)cc1)NC(=O)[C@H](CCCCN)NC(=O)[C@@H](NC(=O)[C@H](Cc1c[nH]c2ccccc12)NC(=O)[C@H](CCCN=C(N)N)NC(=O)[C@H](Cc1cnc[nH]1)NC(=O)[C@H](CC(C)C)NC(=O)[C@H](Cc1ccccc1)NC(=O)[C@H](CCCN=C(N)N)NC(=O)[C@@H](NC(=O)[C@H](Cc1ccc(O)cc1)NC(=O)[C@H](CCCCN)NC(=O)[C@@H](N)CCCN=C(N)N)C(C)C)C(C)C)C(=O)O [RKYVRFLHRWVKYFRAYL]

The next lines start with the molecule.

Structure (SMILES): CC[C@H](C)[C@H](NC(=O)[C@H](C)NC(=O)[C@H](CCCCN)NC(=O)[C@@H]1CCCN1C(=O)[C@@H](NC(=O)[C@H](CC(C)C)NC(=O)[C@H](CO)NC(=O)[C@H](CC(C)C)NC(=O)[C@@H](N)Cc1ccccc1)[C@@H](C)CC)C(=O)N[C@@H](CO)C(=O)N[C@@H](C)C(=O)N[C@H](C(=O)N[C@@H](CO)C(=O)N[C@@H](C)C(=O)N[C@@H](CC(C)C)C(=O)N[C@@H](C)C(=O)N[C@@H](CC(N)=O)C(=O)N[C@@H](Cc1cnc[nH]1)C(=O)N[C@@H](Cc1ccccc1)C(N)=O)C(C)C [FLSLIPKAISAVSALANHF]
MIC [1]: 16 µM (≈ 32 µg/mL)
MIC [2]: ≥ 32 µM
MIC [3]: ≥ 128 µM
MIC [4]: ≥ 256 µM
MIC [5]: > 512 µM
MIC [6]: 8 µM (≈ 16 µg/mL)
MIC [7]: 16 µM (≈ 32 µg/mL)

Structure (SMILES): CC[C@H](C)[C@H](NC(=O)CN)C(=O)N[C@@H](CCSC)C(=O)N[C@@H](CC(=O)O)C(=O)N[C@H](C(=O)N[C@H](C(=O)N[C@@H](CCCCN)C(=O)N[C@@H](CC(N)=O)C(=O)N[C@@H](C)C(=O)N[C@@H](C)C(=O)N[C@@H](CCCCN)C(=O)N[C@@H](CC(N)=O)C(=O)N[C@@H](CC(C)C)C(=O)N[C@@H](C)C(=O)NCC(=O)N[C@@H](CCC(N)=O)C(=O)N[C@@H](CC(C)C)C(=O)N[C@@H](CC(C)C)C(=O)N[C@@H](CC(=O)O)C(=O)N[C@@H](CCCCN)C(=O)N[C@@H](CC(C)C)C(=O)N[C@@H](CCCCN)C(=O)N[C@H]1CSSC[C@@H](C(=O)O)NC(=O)[C@H](C)NC(=O)[C@H]([C@@H](C)O)NC(=O)[C@H]([C@@H](C)CC)NC(=O)[C@H](CO)NC1=O)C(C)C)[C@@H](C)O [GIMDTVKNAAKNLAGQLLDKLKCSITAC]
MIC [8]: ≥ 512 µM
MIC [2]: ≥ 512 µM
MIC [3]: ≥ 512 µM
MIC [5]: > 512 µM
MIC [9]: ≥ 512 µM
MIC [6]: ≥ 512 µM

Structure (SMILES): CC[C@H](C)[C@H](NC(=O)[C@H](C)NC(=O)[C@H](CCCCN)NC(=O)[C@H](CCCN=C(N)N)NC(=O)[C@H](CC(C)C)NC(=O)[C@H](Cc1ccccc1)NC(=O)[C@H](CCCCN)NC(=O)[C@H](CCCCN)NC(=O)[C@@H](NC(=O)[C@H](CC(C)C)NC(=O)[C@H](CCCCN)NC(=O)CNC(=O)[C@H](Cc1ccccc1)NC(=O)[C@H](CC(C)C)NC(=O)CN)[C@@H](C)CC)C(=O)N[C@@H](CO)C(=O)N[C@@H](Cc1ccc(O)cc1)C(=O)N[C@@H](C)C(=O)N[C@H](C(=O)N[C@@H](CCCCN)C(=O)N[C@@H](CCCCN)C(=O)N[C@@H](C)C(=O)N[C@@H](CCCN=C(N)N)C(=O)NCC(=O)N[C@@H](CCCCN)C(=O)N[C@@H](Cc1cnc[nH]1)C(=O)O)C(C)C [GLFGKLIKKFLRKAISYAVKKARGKH]
MIC [10]: 0.7 µM (≈ 2.07 µg/mL)
MIC (Escherichia coli C600): 3 µM (≈ 8.88 µg/mL)
MIC [11]: 1.5 µM (≈ 4.44 µg/mL)
